Test: xn = mol fraction of the nth substance listed

CCCCCC[n+]1ccn(C)c1.O=[N+]([O-])[O-] + CCCCCCCO
Settings | viscosity [mPa·s]
293.15 K, 100 kPa, x1 = 0.4392 | 100.5

CCCC[n+]1ccn(C)c1.O=[N+]([O-])[O-] + CCCCCCCO
viscosity [mPa·s], 100 kPa
Settings | 293.15 K | 303.15 K | 313.15 K | 323.15 K
x1 = 0.0824 | 7.76 | 5.5 | 3.98 | 2.87
x1 = 0.1625 | 8.67 | 6.03 | 4.34 | 3.03
x1 = 0.2317 | 9.68 | 6.61 | 4.7 | 3.23
x1 = 0.3446 | 11.46 | 7.53 | 5.37 | 3.67
x1 = 0.4317 | 13.2 | 8.53 | 5.96 | 4.12
x1 = 0.5762 | 18.7 | 11.56 | 7.74 | 5.01
x1 = 0.6416 | 24.3 | 14.4 | 9.06 | 5.69
x1 = 0.7334 | 41.3 | 22.6 | 14 | 8.49
x1 = 0.8418 | 82.4 | 43 | 26.4 | 15.8
x1 = 0.9327 | 146 | 77.8 | 47.8 | 28.1
x1 = 1 | 224 | 125 | 75.1 | 45.2

CCCC[n+]1ccn(C)c1.O=[N+]([O-])[O-] + CCCCCCO
viscosity [mPa·s], 100 kPa
Settings | 293.15 K | 303.15 K | 313.15 K | 323.15 K
x1 = 0.0811 | 6.41 | 4.47 | 3.24 | 2.45
x1 = 0.1741 | 7.98 | 5.21 | 3.72 | 2.75
x1 = 0.2418 | 9.59 | 6.02 | 4.21 | 3.02
x1 = 0.3587 | 13.3 | 8.24 | 5.33 | 3.63
x1 = 0.4426 | 17.5 | 10.69 | 6.48 | 4.22
x1 = 0.5532 | 26.6 | 15.4 | 8.94 | 5.49
x1 = 0.6538 | 40.2 | 23 | 12.8 | 7.56
x1 = 0.7414 | 60.7 | 33.8 | 18.9 | 10.83
x1 = 0.8519 | 103.2 | 58.4 | 33.4 | 18.5
x1 = 0.9367 | 162 | 90.8 | 53.2 | 30.6
x1 = 1 | 224 | 125 | 75.1 | 45.2

CCOS(=O)(=O)[O-].CC[n+]1ccn(C)c1 + CCCCCCO
100 kPa
Settings | viscosity [mPa·s]
288.15 K, x1 = 1 | 155.5
293.15 K, x1 = 0.1016 | 7.885
303.15 K, x1 = 0.5956 | 27.85
323.15 K, x1 = 0.4975 | 11.85

CCCC[n+]1ccn(C)c1.O=[N+]([O-])[O-] + CCCCCO
100 kPa
Settings | viscosity [mPa·s]
293.15 K, x1 = 0.4363 | 18.2
293.15 K, x1 = 0.5668 | 29.3
293.15 K, x1 = 0.7481 | 61
313.15 K, x1 = 0.6481 | 18.9
313.15 K, x1 = 0.8416 | 38.7
313.15 K, x1 = 0.9415 | 57.5
323.15 K, x1 = 0.0824 | 2.22
323.15 K, x1 = 0.9415 | 35.5

CCCC[n+]1ccn(C)c1.O=[N+]([O-])[O-] + CCCCO
101 kPa
Settings | viscosity [mPa·s]
283.15 K, x2 = 0.456 | 47.92
288.15 K, x2 = 0.26 | 94.8
288.15 K, x2 = 0.565 | 23.86
293.15 K, x2 = 0.565 | 19.88
293.15 K, x2 = 0.848 | 5.88
298.15 K, x2 = 0.129 | 97
298.15 K, x2 = 0.456 | 25.72
298.15 K, x2 = 0.565 | 16.79
303.15 K, x2 = 0.26 | 43.31
303.15 K, x2 = 0.565 | 14.34
308.15 K, x2 = 0.129 | 56.32
308.15 K, x2 = 0.26 | 35.31
308.15 K, x2 = 0.65 | 8.91
308.15 K, x2 = 0.753 | 5.59
313.15 K, x2 = 0.361 | 21.55
313.15 K, x2 = 0.565 | 10.76
313.15 K, x2 = 0.65 | 7.8
313.15 K, x2 = 0.753 | 4.91
318.15 K, x2 = 0.26 | 24.53
318.15 K, x2 = 0.565 | 9.44
323.15 K, x2 = 0.361 | 15.85
323.15 K, x2 = 0.753 | 3.92
333.15 K, x2 = 0.361 | 12.03
333.15 K, x2 = 0.565 | 6.56

From the CheMixHub ionic liquid set
